≈ marks a conversion by molar mass, not a printed value.
Columns and labels:
Micrococcus luteus [1] = experiment: Antibacterial activity against Micrococcus luteus MTCC 2470 after 24 hrs by well diffusion method; format: functional; conditions: MTCC 2470, 24 h
Staphylococcus aureus [2] = experiment: Antibacterial activity against Staphylococcus aureus MLS16 MTCC 2940 after 24 hrs by well diffusion method; format: functional; conditions: MLS16 MTCC 2940, 24 h
Bacillus subtilis [3] = experiment: Antibiofilm activity against Bacillus subtilis MTCC 121 after 24 hrs by crystal violet staining based method; format: functional; conditions: MTCC 121, 24 h
Candida albicans [4] = experiment: Antifungal activity against Candida albicans MTCC 3958 after 24 hrs by well diffusion method; format: functional; conditions: MTCC 3958, 24 h
Micrococcus luteus [5] = experiment: Antibiofilm activity against Micrococcus luteus MTCC 2470 after 24 hrs by crystal violet staining based method; format: functional; conditions: MTCC 2470, 24 h
Raoultella planticola [6] = experiment: Antibiofilm activity against Klebsiella planticola MTCC 530 after 24 hrs by crystal violet staining based method; format: functional; conditions: MTCC 530, 24 h
HeLa = experiment: Cytotoxicity against human HeLa cells after 24 hrs by MTT assay; format: functional, cell-based
Candida albicans [7] = experiment: Antifungal activity against Candida albicans MTCC 7315 after 24 hrs by well diffusion method; format: functional; conditions: MTCC 7315, 24 h
Escherichia coli [8] = experiment: Antibacterial activity against Escherichia coli MTCC 739 after 24 hrs by well diffusion method; format: functional; conditions: MTCC 739, 24 h
Candida parapsilosis = experiment: Antifungal activity against Candida parapsilosis MTCC 1744 after 24 hrs by well diffusion method; format: functional; conditions: MTCC 1744, 24 h
Staphylococcus aureus [9] = experiment: Induction of intracellular ROS accumulation in Staphylococcus aureus MLS16 MTCC 2940 sessile biofilm cells assessed as fluorescence intensity at 3 ug/ml after 24 hrs by DCFH-DA staining-based fluorescence assay (reference value: 62 +/- 9.8 a.u.); format: functional
Candida albicans [10] = experiment: Antibiofilm activity against Candida albicans MTCC 4748 after 24 hrs by crystal violet staining based method; format: functional; conditions: MTCC 4748, 24 h
HepG2 = experiment: Cytotoxicity against human HepG2 cells after 24 hrs by MTT assay; format: functional, cell-based; conditions: HepG2, 24 h
Candida albicans [11] = experiment: Antifungal activity against Candida albicans MTCC 1637 after 24 hrs by well diffusion method; format: functional; conditions: MTCC 1637, 24 h
Staphylococcus aureus [12] = experiment: Induction of intracellular ROS accumulation in Staphylococcus aureus MLS16 MTCC 2940 sessile biofilm cells assessed as fluorescence intensity at 4 ug/ml after 24 hrs by DCFH-DA staining-based fluorescence assay (reference value: 62 +/- 9.8 a.u.); format: functional
Pseudomonas aeruginosa = experiment: Antibacterial activity against Pseudomonas aeruginosa MTCC 2453 after 24 hrs by well diffusion method; format: functional; conditions: MTCC 2453, 24 h
A549 = experiment: Cytotoxicity against human A549 cells after 24 hrs by MTT assay; format: functional, cell-based; conditions: A549, 24 h
Candida albicans [13] = experiment: Antifungal activity against Candida albicans MTCC 3018 after 24 hrs by well diffusion method; format: functional; conditions: MTCC 3018, 24 h
Staphylococcus aureus [14] = experiment: Induction of intracellular ROS accumulation in Staphylococcus aureus MLS16 MTCC 2940 sessile biofilm cells assessed as fluorescence intensity at 1 ug/ml after 24 hrs by DCFH-DA staining-based fluorescence assay (reference value: 62 +/- 9.8 a.u.); format: functional
Candida albicans [15] = experiment: Antifungal activity against Candida albicans MTCC 4748 after 24 hrs by well diffusion method; format: functional; conditions: MTCC 4748, 24 h
Raoultella planticola [16] = experiment: Antibacterial activity against Klebsiella planticola MTCC 530 after 24 hrs by well diffusion method; format: functional; conditions: MTCC 530, 24 h
Pichia kudriavzevii = experiment: Antifungal activity against Candida krusei MTCC 3020 after 24 hrs by well diffusion method; format: functional; conditions: MTCC 3020, 24 h
Nakaseomyces glabratus = experiment: Antifungal activity against Candida glabrata MTCC 3019 after 24 hrs by well diffusion method; format: functional; conditions: MTCC 3019, 24 h
Escherichia coli [17] = experiment: Antibiofilm activity against Escherichia coli MTCC 739 after 24 hrs by crystal violet staining based method; format: functional; conditions: MTCC 739, 24 h
Staphylococcus aureus [18] = experiment: Antibiofilm activity against Staphylococcus aureus MTCC 96 after 24 hrs by crystal violet staining based method; format: functional; conditions: MTCC 96, 24 h
Candida albicans [19] = experiment: Antifungal activity against Candida albicans MTCC 227 after 24 hrs by well diffusion method; format: functional; conditions: MTCC 227, 24 h
COLO 205 = experiment: Cytotoxicity against human COLO205 cells after 24 hrs by MTT assay; format: functional, cell-based; conditions: COLO 205, 24 h
Pichia sporocuriosa = experiment: Antifungal activity against Issatchenkia hanoiensis MTCC 4755 after 24 hrs by well diffusion method; format: functional; conditions: MTCC 4755, 24 h
[Candida] aaseri = Antifungal activity against Candida aaseri MTCC 1962 after 24 hrs by well diffusion method; format: functional; conditions: Yamadazyma aaseri, MTCC 1962, 24 h
Staphylococcus aureus [20] = experiment: Antibiofilm activity against Staphylococcus aureus MLS16 MTCC 2940 after 24 hrs by crystal violet staining based method; format: functional; conditions: MLS16 MTCC 2940, 24 h
Bacillus subtilis [21] = experiment: Antibacterial activity against Bacillus subtilis MTCC 121 after 24 hrs by well diffusion method; format: functional; conditions: MTCC 121, 24 h
Candida albicans [22] = experiment: Antifungal activity against Candida albicans MTCC 854 after 24 hrs by well diffusion method; format: functional; conditions: MTCC 854, 24 h
Candida albicans [23] = experiment: Antifungal activity against Candida albicans MTCC 183 after 24 hrs by well diffusion method; format: functional; conditions: MTCC 183, 24 h
Candida albicans [24] = experiment: Antifungal activity against Candida albicans MTCC 3017 after 24 hrs by well diffusion method; format: functional; conditions: MTCC 3017, 24 h
Staphylococcus aureus [25] = experiment: Antibacterial activity against Staphylococcus aureus MTCC 96 after 24 hrs by well diffusion method; format: functional; conditions: MTCC 96, 24 h
Staphylococcus aureus [26] = experiment: Induction of intracellular ROS accumulation in Staphylococcus aureus MLS16 MTCC 2940 sessile biofilm cells assessed as fluorescence intensity at 2 ug/ml after 24 hrs by DCFH-DA staining-based fluorescence assay (reference value: 62 +/- 9.8 a.u.); format: functional

O=C(Cn1nc(C(F)(F)F)c2c(-c3ccccc3)c3ccccc3nc21)NCCN1CCNCC1
MIC (Micrococcus luteus [1]): 3.9 mg/L (≈ 8.08 µM)
MIC (Staphylococcus aureus [2]): 3.9 mg/L (≈ 8.08 µM)
IC50 (Bacillus subtilis [3]): 2.2 µM
MIC (Candida albicans [4]): 15.6 mg/L (≈ 32.3 µM)
IC50 (Micrococcus luteus [5]): 2.5 µM
IC50 (Raoultella planticola [6]): 2.3 µM
IC50 (HeLa): 13.6 µM
MIC (Candida albicans [7]): 15.6 mg/L (≈ 32.3 µM)
MIC (Escherichia coli [8]): 7.8 mg/L (≈ 16.2 µM)
MIC (Candida parapsilosis): 7.8 mg/L (≈ 16.2 µM)
Flu intensity (Staphylococcus aureus [9]): 101 a.u.
IC50 (Candida albicans [10]): 5.1 µM
IC50 (HepG2): 11.2 µM
MIC (Candida albicans [11]): 7.8 mg/L (≈ 16.2 µM)
Flu intensity (Staphylococcus aureus [12]): 1342 a.u.
MIC (Pseudomonas aeruginosa): > 125 mg/L
IC50 (A549): 10.6 µM
MIC (Candida albicans [13]): 15.6 mg/L (≈ 32.3 µM)
Flu intensity (Staphylococcus aureus [14]): 492 a.u.
MIC (Candida albicans [15]): 7.8 mg/L (≈ 16.2 µM)
MIC (Raoultella planticola [16]): 3.9 mg/L (≈ 8.08 µM)
MIC (Pichia kudriavzevii): 15.6 mg/L (≈ 32.3 µM)
MIC (Nakaseomyces glabratus): 15.6 mg/L (≈ 32.3 µM)
IC50 (Escherichia coli [17]): 4.2 µM
IC50 (Staphylococcus aureus [18]): 4.1 µM
MIC (Candida albicans [19]): 15.6 mg/L (≈ 32.3 µM)
IC50 (COLO 205): 12.2 µM
MIC (Pichia sporocuriosa): 7.8 mg/L (≈ 16.2 µM)
MIC ([Candida] aaseri): 15.6 mg/L (≈ 32.3 µM)
IC50 (Staphylococcus aureus [20]): 2.1 µM
MIC (Bacillus subtilis [21]): 3.9 mg/L (≈ 8.08 µM)
MIC (Candida albicans [22]): 15.6 mg/L (≈ 32.3 µM)
MIC (Candida albicans [23]): 7.8 mg/L (≈ 16.2 µM)
MIC (Candida albicans [24]): 7.8 mg/L (≈ 16.2 µM)
MIC (Staphylococcus aureus [25]): 7.8 mg/L (≈ 16.2 µM)
Flu intensity (Staphylococcus aureus [26]): 792 a.u.

O=C(O)c1cn(C2CC2)c2cc(N3CCNCC3)c(F)cc2c1=O [CIPROFLOXACIN]
MIC (Micrococcus luteus [1]): 0.9 mg/L (≈ 2.72 µM)
MIC (Staphylococcus aureus [2]): 0.9 mg/L (≈ 2.72 µM)
IC50 (Bacillus subtilis [3]): 0.6 µM
MIC (Escherichia coli [8]): 0.9 mg/L (≈ 2.72 µM)
Flu intensity (Staphylococcus aureus [9]): 1952 a.u.
Flu intensity (Staphylococcus aureus [12]): 2010 a.u.
MIC (Pseudomonas aeruginosa): 0.9 mg/L (≈ 2.72 µM)
Flu intensity (Staphylococcus aureus [14]): 601 a.u.
MIC (Raoultella planticola [16]): 0.9 mg/L (≈ 2.72 µM)
IC50 (Escherichia coli [17]): 0.8 µM
MIC (Bacillus subtilis [21]): 0.9 mg/L (≈ 2.72 µM)
MIC (Staphylococcus aureus [25]): 0.9 mg/L (≈ 2.72 µM)
Flu intensity (Staphylococcus aureus [26]): 925 a.u.

— ChEMBL document CHEMBL4014279, “Synthesis of novel pyrazolo[3,4-b]quinolinyl acetamide analogs, their evaluation for antimicrobial and anticancer activities, validation by molecular modeling and CoMFA analysis” (Eur J Med Chem, 2017)
